According to patent US10590143B2, “Herbicidally active (alkynyl-phenyl)-substituted cyclic dione compounds and derivatives thereof” (Syngenta Limited, priority 2013, dated 2020):
Read-outs that look alike come from different tables or passages of the source.

Assays:
Assay type in all cases: in vivo
[1] = system: Abutilon theophrasti (ABUTH); assay: Biological Example 1 glasshouse assay for herbicidal activity; conditions: 312 h, 13 days after application, read-out: percentage phytotoxicity ABUTH
Procedure, shortened: (§1)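 Visual % phytotoxicity (0% = no damage, 100% = total damage) scored 13 days after spraying. Spray: acetone/water 50:50 + 0.5% Tween 20, applied pre-emergence (day 1 after sowing) or post-emergence (day 8). Usually one plant per species per rate and timing.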

[2] = system: Alopecurus myosuroides (ALOMY); assay: as above; conditions: 312 h, 13 days after application, read-out: percentage phytotoxicity ALOMY
Procedure, shortened: as §1

[3] = system: Amaranthus retroflexus (AMARE); assay: as above; conditions: Amaranthus retroflexus, 312 h, 13 days after application, read-out: percentage phytotoxicity AMARE
Procedure, shortened: as §1

[4] = system: Echinochloa crus-galli (ECHCG); assay: as above; conditions: Echinochloa crus-galli, 312 h, 13 days after application, read-out: percentage phytotoxicity ECHCG
Procedure, shortened: as §1

[5] = system: Setaria faberi (SETFA); assay: as above; conditions: 312 h, 13 days after application, read-out: percentage phytotoxicity SETFA
Procedure, shortened: as §1

[6] = system: Zea mays (ZEAMX, corn, maize, e.g. volunteer corn); assay: as above; conditions: Zea mays, 312 h, 13 days after application, read-out: percentage phytotoxicity ZEAMX
Procedure, shortened: as §1

[7] = system: Avena fatua (AVEFA); assay: Biological Example 2 glasshouse assay for herbicidal activity; conditions: post-emergence, 360 h, 14 or 15 DAA, 0.2% v/v X-77, read-out: percentage phytotoxicity AVEFA
Procedure, shortened: (§2)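 Glasshouse pots sprayed pre-emergence (1 day after sowing) or post-emergence (~12 days) with active ingredient formulated as IF50 in water plus 0.2% v/v X-77; warm species 24/18 °C, cool species 20/16 °C, 16 h light, 65% humidity. Visual % phytotoxicity scored 14–15 DAA (post) or 20 DAA (pre).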

[8] = system: Setaria faberi (SETFA); assay: as above; conditions: post-emergence, 360 h, 14 or 15 DAA, 0.2% v/v X-77, read-out: percentage phytotoxicity SETFA
Procedure, shortened: as §2

[9] = system: Triticum aestivum (TRZAW, winter wheat); assay: as above; conditions: post-emergence, 360 h, 14 or 15 DAA, 0.2% v/v X-77, read-out: percentage phytotoxicity TRZAW
Procedure, shortened: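 Herbicide applied as a spray (IF50 formulation, 0.2% v/v X-77 adjuvant) to soil-grown plants pre-emergence or post-emergence. Ratings were taken 20 DAA or 14–15 DAA respectively, on a 0–100% scale.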

**Q.** Which results are given for `CC#Cc1cc(F)c(C2=C(OC(=O)C(C)(C)C)C3CCC(C3)C2=O)c(OC)c1` (centres unmarked) [Compound P1]?
**A.** pest or weed control at 8 g/ha ([1]; post-emergence, post-emergence): 0%; pest or weed control at 30 g/ha ([1]; post-emergence, post-emergence): 0%; pest or weed control at 250 g/ha ([1]; post-emergence, post-emergence): 80%; pest or weed control at 30 g/ha ([1]; pre-emergence, pre-emergence): 10%; pest or weed control at 250 g/ha ([1]; pre-emergence, pre-emergence): 30%; pest or weed control at 8 g/ha ([2]; post-emergence): 60%; pest or weed control at 30 g/ha ([2]; post-emergence): 90%; pest or weed control at 250 g/ha ([2]; post-emergence): 100%; pest or weed control at 30 g/ha ([2]; pre-emergence): 70%; pest or weed control at 250 g/ha ([2]; pre-emergence): 100%; pest or weed control at 8 g/ha ([3]; post-emergence, post-emergence): 0%; pest or weed control at 30 g/ha ([3]; post-emergence, post-emergence): 10%; pest or weed control at 250 g/ha ([3]; post-emergence, post-emergence): 40%; pest or weed control at 30 g/ha ([3]; pre-emergence, pre-emergence): 50%; pest or weed control at 250 g/ha ([3]; pre-emergence, pre-emergence): 70%; pest or weed control at 8 g/ha ([4]; post-emergence, post-emergence): 80%; pest or weed control at 30 g/ha ([4]; post-emergence, post-emergence): 100%; pest or weed control at 250 g/ha ([4]; post-emergence, post-emergence): 100%; pest or weed control at 30 g/ha ([4]; pre-emergence, pre-emergence): 90%; pest or weed control at 250 g/ha ([4]; pre-emergence, pre-emergence): 100%; pest or weed control at 8 g/ha ([5]; post-emergence, post-emergence): 70%; pest or weed control at 30 g/ha ([5]; post-emergence, post-emergence): 80%; pest or weed control at 250 g/ha ([5]; post-emergence, post-emergence): 100%; pest or weed control at 30 g/ha ([5]; pre-emergence, pre-emergence): 40%; pest or weed control at 250 g/ha ([5]; pre-emergence, pre-emergence): 80%; pest or weed control at 8 g/ha ([6]; post-emergence, post-emergence): 100%; pest or weed control at 30 g/ha ([6]; post-emergence, post-emergence): 100%; pest or weed control at 250 g/ha ([6]; post-emergence, post-emergence): 100%; pest or weed control at 30 g/ha ([6]; pre-emergence, pre-emergence): 90%; pest or weed control at 250 g/ha ([6]; pre-emergence, pre-emergence): 100%; pest or weed control at 30 g/ha [7]: 80%; pest or weed control at 250 g/ha [7]: 90%; pest or weed control at 30 g/ha [8]: 80%; pest or weed control at 250 g/ha [8]: 90%; plant injury at 30 g/ha [9]: 60%; plant injury at 250 g/ha ([9]; 250 g/ha): 90%

**Q.** Which results are given for `CC#Cc1cc(F)c(C2=C(OC(=O)c3ccccc3)C3CCC(C3)C2=O)c(OC)c1` (centres unmarked) [Compound P5, [3-(2-fluoro-6-methoxy-4-prop-1-ynyl-phenyl)-4-oxo-2-bicyclo[3.2.1]oct-2-enyl]benzoate]?
**A.** pest or weed control at 8 g/ha ([1]; post-emergence, post-emergence): 0%; pest or weed control at 30 g/ha ([1]; post-emergence, post-emergence): 10%; pest or weed control at 250 g/ha ([1]; post-emergence, post-emergence): 80%; pest or weed control at 30 g/ha ([1]; pre-emergence, pre-emergence): 0%; pest or weed control at 250 g/ha ([1]; pre-emergence, pre-emergence): 60%; pest or weed control at 8 g/ha ([2]; post-emergence): 70%; pest or weed control at 30 g/ha ([2]; post-emergence): 90%; pest or weed control at 250 g/ha ([2]; post-emergence): 90%; pest or weed control at 30 g/ha ([2]; pre-emergence): 70%; pest or weed control at 250 g/ha ([2]; pre-emergence): 100%; pest or weed control at 8 g/ha ([3]; post-emergence, post-emergence): 0%; pest or weed control at 30 g/ha ([3]; post-emergence, post-emergence): 0%; pest or weed control at 250 g/ha ([3]; post-emergence, post-emergence): 20%; pest or weed control at 30 g/ha ([3]; pre-emergence, pre-emergence): 20%; pest or weed control at 250 g/ha ([3]; pre-emergence, pre-emergence): 70%; pest or weed control at 8 g/ha ([4]; post-emergence, post-emergence): 90%; pest or weed control at 30 g/ha ([4]; post-emergence, post-emergence): 100%; pest or weed control at 250 g/ha ([4]; post-emergence, post-emergence): 100%; pest or weed control at 30 g/ha ([4]; pre-emergence, pre-emergence): 80%; pest or weed control at 250 g/ha ([4]; pre-emergence, pre-emergence): 100%; pest or weed control at 8 g/ha ([5]; post-emergence, post-emergence): 60%; pest or weed control at 30 g/ha ([5]; post-emergence, post-emergence): 80%; pest or weed control at 250 g/ha ([5]; post-emergence, post-emergence): 90%; pest or weed control at 30 g/ha ([5]; pre-emergence, pre-emergence): 60%; pest or weed control at 250 g/ha ([5]; pre-emergence, pre-emergence): 80%; pest or weed control at 8 g/ha ([6]; post-emergence, post-emergence): 100%; pest or weed control at 30 g/ha ([6]; post-emergence, post-emergence): 100%; pest or weed control at 250 g/ha ([6]; post-emergence, post-emergence): 100%; pest or weed control at 30 g/ha ([6]; pre-emergence, pre-emergence): 80%; pest or weed control at 250 g/ha ([6]; pre-emergence, pre-emergence): 100%; pest or weed control at 30 g/ha [7]: 80%; pest or weed control at 250 g/ha [7]: 90%; pest or weed control at 30 g/ha [8]: 80%; pest or weed control at 250 g/ha [8]: 90%; plant injury at 30 g/ha [9]: 50%
